These results are taken from patent US20170190705A1, “Compositions and Methods for Inhibiting BMP” (THE BRIGHAM AND WOMAN'S HOSPITAL, INC., priority 2014, published 2017).

What all share (type): biochemical
Experiment [1] concerns the target T1, IRAK4 (Homo sapiens, UniProt Q9NWZ3).
T1 sequence (Q9NWZ3 1-460): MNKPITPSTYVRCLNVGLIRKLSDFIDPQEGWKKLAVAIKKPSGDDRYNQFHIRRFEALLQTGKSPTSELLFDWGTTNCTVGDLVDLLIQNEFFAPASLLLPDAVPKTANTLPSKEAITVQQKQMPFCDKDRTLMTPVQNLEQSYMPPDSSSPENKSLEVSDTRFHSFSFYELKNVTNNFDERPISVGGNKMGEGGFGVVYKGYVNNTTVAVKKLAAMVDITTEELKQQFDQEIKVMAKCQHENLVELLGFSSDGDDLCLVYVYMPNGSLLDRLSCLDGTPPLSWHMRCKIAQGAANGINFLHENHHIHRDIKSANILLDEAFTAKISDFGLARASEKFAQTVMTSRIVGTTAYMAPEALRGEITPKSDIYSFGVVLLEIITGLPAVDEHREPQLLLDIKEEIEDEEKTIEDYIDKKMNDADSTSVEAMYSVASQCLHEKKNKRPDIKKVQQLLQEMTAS
Description: Kinome profiling IRAK4. To be noted: read-out: Inhibitory activity IRAK4; for inhibition at 0.1 µM: 100 nM. The method, then: (§1) . The kinome-wide selectivity was determined following the methods previously reported by Mohedas et al., ACS Chem Biol 2013, 8, 1291-1302 and Sanvitale et al., PLoS One 2013, 8, e62721.

For experiment [2], the target named is T2, PRKG2 (Homo sapiens, UniProt Q13237).
T2 sequence (Q13237 1-762): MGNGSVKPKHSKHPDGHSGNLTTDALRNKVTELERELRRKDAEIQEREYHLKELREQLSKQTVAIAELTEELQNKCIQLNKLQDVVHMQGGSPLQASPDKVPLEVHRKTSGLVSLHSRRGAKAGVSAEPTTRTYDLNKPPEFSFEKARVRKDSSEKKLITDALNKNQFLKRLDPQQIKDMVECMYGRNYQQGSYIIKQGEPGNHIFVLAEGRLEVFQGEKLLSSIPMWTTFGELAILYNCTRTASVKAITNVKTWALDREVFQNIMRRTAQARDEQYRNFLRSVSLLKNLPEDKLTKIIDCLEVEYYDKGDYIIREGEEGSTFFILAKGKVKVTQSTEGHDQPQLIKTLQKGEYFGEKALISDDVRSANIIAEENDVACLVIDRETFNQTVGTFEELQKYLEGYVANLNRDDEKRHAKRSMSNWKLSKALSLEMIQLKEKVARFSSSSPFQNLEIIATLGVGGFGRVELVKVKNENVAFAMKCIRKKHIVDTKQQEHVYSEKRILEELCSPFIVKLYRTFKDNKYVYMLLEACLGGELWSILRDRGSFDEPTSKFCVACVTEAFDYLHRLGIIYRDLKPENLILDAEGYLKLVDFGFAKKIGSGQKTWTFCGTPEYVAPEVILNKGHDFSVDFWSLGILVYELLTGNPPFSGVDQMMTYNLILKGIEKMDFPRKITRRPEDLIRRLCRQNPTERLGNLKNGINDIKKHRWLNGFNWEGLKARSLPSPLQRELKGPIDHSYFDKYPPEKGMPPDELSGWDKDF
Description: Kinome profiling PRKG2. The following applies: read-out: Inhibitory activity PRKG2; for inhibition at 0.1 µM: 100 nM. The method, then: as §1

Experiment [3] has as its target FGFR4 (Homo sapiens, UniProt P22455). Description: Kinome profiling FGFR4. To be noted: read-out: Inhibitory activity FGFR4; for inhibition at 0.1 µM: 100 nM. The method, then:
as §1

Experiment [4] addresses PHKγ1 (Homo sapiens, UniProt Q16816). The experiment can be described thus: Kinome profiling PHKγ1. To be noted: read-out: Inhibitory activity PHKγ1; for inhibition at 0.1 µM: 100 nM. The method, then: as §1
The target in experiment [5] is PKA (Homo sapiens, UniProt P17612). Description: Kinome profiling PKA. To be noted: read-out: Inhibitory activity PKA; for inhibition at 0.1 µM: 100 nM. How it is done: as §1
Experiment [6] deals with FMS (Homo sapiens, UniProt P07333). Description: Kinome profiling FMS. The following applies: read-out: Inhibitory activity FMS; for inhibition at 0.1 µM: 100 nM. How it is done:
as §1

The target in experiment [7] is FGR (Homo sapiens, UniProt P09769). The experiment can be described thus: Kinome profiling FGR. The following applies: read-out: Inhibitory activity FGR; for inhibition at 0.1 µM: 100 nM. The method, then: as §1
Experiment [8] deals with T3, SGK1 (Homo sapiens, UniProt O00141).
T3 sequence (O00141 1-431): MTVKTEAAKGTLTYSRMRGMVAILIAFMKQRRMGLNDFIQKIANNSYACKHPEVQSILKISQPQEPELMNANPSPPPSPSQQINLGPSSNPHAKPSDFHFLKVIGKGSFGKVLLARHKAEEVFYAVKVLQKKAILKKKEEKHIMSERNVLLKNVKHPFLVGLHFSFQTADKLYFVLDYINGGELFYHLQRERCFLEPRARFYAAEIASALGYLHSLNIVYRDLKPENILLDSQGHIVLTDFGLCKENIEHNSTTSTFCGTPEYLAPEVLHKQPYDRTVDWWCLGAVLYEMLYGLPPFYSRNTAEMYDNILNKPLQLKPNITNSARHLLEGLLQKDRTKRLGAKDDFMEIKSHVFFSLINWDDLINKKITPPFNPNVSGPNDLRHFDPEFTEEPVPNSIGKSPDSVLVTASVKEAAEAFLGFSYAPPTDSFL
The experiment can be described thus: Kinome profiling SGK1. To be noted: read-out: Inhibitory activity SGK1; for inhibition at 0.1 µM: 100 nM. The method, then: as §1

PHKγ1, sequence (Q16816 whole entry): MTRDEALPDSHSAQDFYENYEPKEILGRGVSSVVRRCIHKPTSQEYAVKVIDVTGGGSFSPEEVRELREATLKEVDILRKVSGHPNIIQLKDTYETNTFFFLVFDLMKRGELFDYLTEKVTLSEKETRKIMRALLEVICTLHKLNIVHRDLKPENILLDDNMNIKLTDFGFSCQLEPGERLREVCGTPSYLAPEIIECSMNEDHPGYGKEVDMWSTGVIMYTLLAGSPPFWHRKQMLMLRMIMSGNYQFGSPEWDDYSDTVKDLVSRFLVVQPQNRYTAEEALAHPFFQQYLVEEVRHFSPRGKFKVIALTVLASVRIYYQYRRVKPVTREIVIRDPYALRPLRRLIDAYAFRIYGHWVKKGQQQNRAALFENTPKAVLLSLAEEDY
FGR, sequence (P09769 whole entry): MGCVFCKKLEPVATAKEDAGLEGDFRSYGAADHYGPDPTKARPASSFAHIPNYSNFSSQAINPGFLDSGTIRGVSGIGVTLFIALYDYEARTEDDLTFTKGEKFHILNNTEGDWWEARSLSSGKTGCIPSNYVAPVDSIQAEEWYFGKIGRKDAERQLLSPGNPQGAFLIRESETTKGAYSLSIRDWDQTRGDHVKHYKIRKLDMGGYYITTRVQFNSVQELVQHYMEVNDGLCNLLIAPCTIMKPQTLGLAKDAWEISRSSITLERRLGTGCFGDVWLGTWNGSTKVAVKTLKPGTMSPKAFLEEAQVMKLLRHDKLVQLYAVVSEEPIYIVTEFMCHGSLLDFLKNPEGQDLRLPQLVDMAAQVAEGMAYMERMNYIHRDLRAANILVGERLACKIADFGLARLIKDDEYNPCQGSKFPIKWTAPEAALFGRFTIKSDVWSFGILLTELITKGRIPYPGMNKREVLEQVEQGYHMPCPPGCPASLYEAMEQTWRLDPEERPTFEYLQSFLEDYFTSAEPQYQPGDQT
FMS, sequence (P07333 20-972): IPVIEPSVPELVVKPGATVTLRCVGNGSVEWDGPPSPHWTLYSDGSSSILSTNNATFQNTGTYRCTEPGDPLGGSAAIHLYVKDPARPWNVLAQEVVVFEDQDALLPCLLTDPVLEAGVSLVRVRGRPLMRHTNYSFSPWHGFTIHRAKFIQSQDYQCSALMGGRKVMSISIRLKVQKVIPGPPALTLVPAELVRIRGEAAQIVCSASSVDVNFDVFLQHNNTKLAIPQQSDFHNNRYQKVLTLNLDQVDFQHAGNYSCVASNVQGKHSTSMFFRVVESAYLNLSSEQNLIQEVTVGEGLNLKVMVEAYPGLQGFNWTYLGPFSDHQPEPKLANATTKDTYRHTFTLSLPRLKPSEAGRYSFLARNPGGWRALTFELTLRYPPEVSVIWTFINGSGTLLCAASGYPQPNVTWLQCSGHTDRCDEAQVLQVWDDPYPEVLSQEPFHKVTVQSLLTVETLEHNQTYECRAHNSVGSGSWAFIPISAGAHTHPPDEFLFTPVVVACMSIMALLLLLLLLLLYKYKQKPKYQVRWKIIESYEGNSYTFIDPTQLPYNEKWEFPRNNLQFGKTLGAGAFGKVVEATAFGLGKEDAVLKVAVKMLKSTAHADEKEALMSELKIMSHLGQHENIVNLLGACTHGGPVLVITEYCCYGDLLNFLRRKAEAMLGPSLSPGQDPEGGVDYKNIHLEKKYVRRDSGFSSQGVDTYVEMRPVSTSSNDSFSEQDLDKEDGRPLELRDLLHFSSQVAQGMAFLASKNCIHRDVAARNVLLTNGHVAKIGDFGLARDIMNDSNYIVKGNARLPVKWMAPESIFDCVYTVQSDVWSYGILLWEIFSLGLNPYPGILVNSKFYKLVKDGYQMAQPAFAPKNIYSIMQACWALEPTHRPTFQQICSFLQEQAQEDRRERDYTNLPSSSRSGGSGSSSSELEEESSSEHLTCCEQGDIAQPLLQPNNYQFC
FGFR4, sequence (P22455 22-802): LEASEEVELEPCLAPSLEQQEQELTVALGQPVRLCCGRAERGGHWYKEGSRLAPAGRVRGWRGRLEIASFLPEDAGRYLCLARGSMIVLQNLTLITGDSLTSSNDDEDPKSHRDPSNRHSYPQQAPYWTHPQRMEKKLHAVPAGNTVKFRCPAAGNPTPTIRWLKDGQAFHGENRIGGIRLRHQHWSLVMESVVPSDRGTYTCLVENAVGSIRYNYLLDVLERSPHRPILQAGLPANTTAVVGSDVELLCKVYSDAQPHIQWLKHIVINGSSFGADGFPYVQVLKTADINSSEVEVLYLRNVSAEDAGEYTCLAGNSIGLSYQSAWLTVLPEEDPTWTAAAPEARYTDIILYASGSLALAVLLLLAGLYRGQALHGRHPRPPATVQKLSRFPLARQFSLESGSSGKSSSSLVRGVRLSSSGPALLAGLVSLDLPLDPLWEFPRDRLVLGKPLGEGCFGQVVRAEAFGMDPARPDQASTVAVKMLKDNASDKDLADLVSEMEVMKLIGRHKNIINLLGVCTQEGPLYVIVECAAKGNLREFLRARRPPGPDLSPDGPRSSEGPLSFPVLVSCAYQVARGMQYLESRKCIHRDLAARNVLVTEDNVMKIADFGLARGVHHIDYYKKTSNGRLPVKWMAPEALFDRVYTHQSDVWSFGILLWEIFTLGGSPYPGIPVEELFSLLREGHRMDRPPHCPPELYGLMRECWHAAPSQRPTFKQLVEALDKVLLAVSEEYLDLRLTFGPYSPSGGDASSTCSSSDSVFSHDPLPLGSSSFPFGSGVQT

`COc1cc(-c2cc(-c3ccc(N4CCNCC4)cc3)cnc2C)cc(OC)c1OC` [Compound 10, 1-(4-(6-methyl-5-(3,4,5-trimethoxyphenyl)pyridin-3-yl)phenyl)piperazine]: the inhibition at 0.1 µM in experiment [1] amounted to 0%; in experiment [2] it was 0%; in experiment [3] it was 1%; in experiment [4] it was 3%; in experiment [5] it was 1%; in experiment [6], 5%. Besides, the inhibition at 0.1 µM came to 9% in experiment [7] and 2% in experiment [8]. The inhibition at 1 µM in experiment [1] worked out at 1%; in experiment [2], 4%; in experiment [3] it was 2%; in experiment [4], 3%; in experiment [5], 3%; in experiment [6], 33%. The inhibition at 1 µM in experiment [7] was 36%; in experiment [8], 1%.
Consider `COc1cc(-c2cc(-c3ccc(N4CCNCC4)cc3)cnc2N)cc(OC)c1OC` [Compound 15, 5-(4-(piperazin-1-yl)phenyl)-3-(3,4,5-trimethoxyphenyl)pyridin-2-amine], for which the inhibition at 0.1 µM in experiment [1] worked out at 1%; in experiment [2], 0%; in experiment [3], 1%; in experiment [4], 3%; in experiment [5] it was 1%; in experiment [6], 23%. For the same compound, the figures for the inhibition at 0.1 µM in experiment [7] and in experiment [8] were 36% and 3%, respectively. The inhibition at 1 µM in experiment [1] was determined as 2%; in experiment [2], 1%; in experiment [3], 0%; in experiment [4], 4%; in experiment [5], 2%; in experiment [6], 65%. Also, the inhibition at 1 µM is 76% in experiment [7] and 1% in experiment [8].
